Tests used:
[1] = system: HAP1 MTAP-intact cell line; test: SDMA in-cell western assay, HAP1 MTAP-intact; format: cell-based; settings: Homo sapiens, HAP1, SDMA in-cell western, HAP1 MTAP-intact; read-out: MTAP HAP1 intact IC50
How it was run: (§1)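 Isogenic HAP1 pair: the MTAP-intact line expresses endogenous MTAP, and the deleted line is MTAP-null. Symmetric dimethylarginine was detected by in-cell western and IC50 values derived for each line.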

PRMT5 [2] = target: T1, PRMT5 (Homo sapiens, UniProt O14744); test: PRMT5 biochemical IC50 assay with MTA as cofactor; settings: PRMT5, MTA as cofactor; read-out: MTA IC50
T1 construct: purchased Viva (custom protein)

[3] = system: HAP1 MTAP-deleted cell line; test: Viability assay, MTAP-deleted cell line; format: cell-based; settings: Homo sapiens, HAP1, viability IC50, MTAP-deleted cell line; read-out: HAP1 MTAP deleted viability
Excerpt: Table 1 additionally indicates IC50 values in a viability assay for the MTAP-deleted cell line (column 10), indicating the effect of treatment with compound on cell survival.

PRMT5 [4] = target: T1, PRMT5; test: PRMT5 biochemical IC50 assay with no cofactor; settings: PRMT5, no cofactor; read-out: No Cofactor/rel IC50
Excerpt: Table 1 indicates IC50 values (μM) against PRMT5 for exemplary compounds in the presence of SAM as cofactor, with no cofactor, and with MTA as cofactor, respectively (columns 4-6). […] Ki values can be calculated from the IC50 values as described in the Examples section. As detailed in the Examples section, for the assay performed in the presence of SAM, IC50=Ki×1.5 (Ki=IC50/1.5).

[5] = system: HAP1 MTAP-deleted cell line; test: SDMA in-cell western assay, HAP1 MTAP-deleted; format: cell-based; settings: for IC50: Homo sapiens, HAP1, SDMA in-cell western, HAP1 MTAP-deleted, read-out: HAP 1 MTAP deleted IC50; for MTAP intact/deleted ratio: IC50 ratio HAP1 MTAP-intact / HAP1 MTAP-deleted, SDMA in-cell western
How it was run: as §1

PRMT5 [6] = target: T1, PRMT5; test: PRMT5 biochemical IC50 assay with SAM as cofactor; settings: PRMT5, SAM as cofactor; read-out: SAM IC50

T1 sequence (O14744 whole entry): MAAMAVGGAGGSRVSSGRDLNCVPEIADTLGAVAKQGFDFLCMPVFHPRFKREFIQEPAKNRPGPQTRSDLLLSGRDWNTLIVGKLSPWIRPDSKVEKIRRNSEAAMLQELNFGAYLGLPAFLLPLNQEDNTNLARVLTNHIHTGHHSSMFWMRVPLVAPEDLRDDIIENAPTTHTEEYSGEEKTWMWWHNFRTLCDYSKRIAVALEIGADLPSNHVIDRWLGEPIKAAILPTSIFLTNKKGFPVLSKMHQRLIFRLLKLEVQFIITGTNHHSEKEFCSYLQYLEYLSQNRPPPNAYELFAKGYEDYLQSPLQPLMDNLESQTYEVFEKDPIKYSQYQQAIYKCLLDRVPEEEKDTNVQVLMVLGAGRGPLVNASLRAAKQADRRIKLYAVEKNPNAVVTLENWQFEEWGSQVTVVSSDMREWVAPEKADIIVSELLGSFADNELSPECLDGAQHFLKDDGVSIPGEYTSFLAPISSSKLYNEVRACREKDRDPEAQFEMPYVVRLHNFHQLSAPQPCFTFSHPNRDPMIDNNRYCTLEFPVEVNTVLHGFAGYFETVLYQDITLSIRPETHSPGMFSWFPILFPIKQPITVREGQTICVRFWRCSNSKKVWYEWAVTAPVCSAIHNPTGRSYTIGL
T1 sequence (Q9BQA1 whole entry partner): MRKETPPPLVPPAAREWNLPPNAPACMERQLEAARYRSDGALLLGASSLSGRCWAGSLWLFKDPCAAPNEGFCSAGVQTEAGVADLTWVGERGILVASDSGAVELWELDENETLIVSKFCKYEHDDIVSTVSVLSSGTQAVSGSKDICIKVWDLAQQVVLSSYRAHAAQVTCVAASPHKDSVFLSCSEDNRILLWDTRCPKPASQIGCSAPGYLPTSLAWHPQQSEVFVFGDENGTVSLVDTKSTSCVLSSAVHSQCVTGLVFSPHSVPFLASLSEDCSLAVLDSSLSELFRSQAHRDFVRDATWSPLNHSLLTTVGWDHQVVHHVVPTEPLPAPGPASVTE

SMILES	IC50 [1] [nM]	IC50 (PRMT5 [2]) [nM]	IC50 (PRMT5 [4]) [nM]	IC50 [5] [nM]	IC50 (PRMT5 [6]) [nM]	IC50 [3] [nM]	MTAP intact/deleted ratio [5]
Cc1cc(NC(=O)C(=O)N2C[C@H](C)CC[C@H]2c2ccc(C(F)(F)F)cc2)cnc1N (single isomer, unassigned) [Compound 548]	< 100	< 50	50 to 500	< 100	50 to 500	< 1000	C (an IC50 ratio of less than 3 fold)
Cc1cc(NC(=O)C(=O)N2C[C@H](C)CC[C@H]2c2cnc3[nH]ncc3c2)cnc1N (single isomer, unassigned) [Compound 549]	100 to 1000	< 50	50 to 500	< 100	50 to 500	1000 to 10000	A (an IC50 ratio greater than or equal to 10 fold)
Cc1cc([C@H]2CC[C@H](C)CN2C(=O)C(=O)Nc2cnc(N)c(C)c2)ccc1O (single isomer, unassigned) [Compound 551]	> 1000	> 500	> 500	> 1000	> 500	> 10000	C (an IC50 ratio of less than 3 fold)
C[C@H]1CC[C@H](c2cc3cn[nH]c3cc2F)N(C(=O)C(=O)Nc2cncc(C(N)=O)c2)C1 (single isomer, unassigned) [Compound 553]	> 1000	< 50	50 to 500	100 to 1000	50 to 500	1000 to 10000	A (an IC50 ratio greater than or equal to 10 fold)
Cc1cc(NC(=O)C(=O)N2C[C@H](C)CC[C@H]2[C@H]2CCC[C@H](O)C2)cnc1N (single isomer, unassigned) [Compound 559]	> 1000	< 50	50 to 500	100 to 1000	50 to 500	1000 to 10000	A (an IC50 ratio greater than or equal to 10 fold)
CC(=O)N[C@H]1C[C@H]([C@@H]2CC[C@H](C)CN2C(=O)C(=O)Nc2cnc(N)c(C)c2)C1 (single isomer, unassigned) [Compound 562]	> 1000	> 500	> 500	> 1000	> 500	> 10000	C (an IC50 ratio of less than 3 fold)
CC(=O)N[C@H]1C[C@H]([C@H]2CC[C@H](C)CN2C(=O)C(=O)Nc2cnc(N)c(C)c2)C1 (single isomer, unassigned) [Compound 563]	> 1000	> 500	> 500	> 1000	> 500	> 10000	C (an IC50 ratio of less than 3 fold)
CC(=O)N[C@H]1C[C@H]([C@H]2CC[C@@H](C)CN2C(=O)C(=O)Nc2cnc(N)c(C)c2)C1 (single isomer, unassigned) [Compound 564]	> 1000	50 to 500	> 500	> 1000	50 to 500	> 10000	B (an IC50 ratio greater than or equal to 3 fold but lower than 10 fold)
Cc1cc(NC(=O)C(=O)N2C[C@@H](C)CC[C@@H]2[C@H]2CCC[C@@H](O)C2)cnc1N (single isomer, unassigned) [Compound 566]	> 1000	50 to 500	50 to 500	100 to 1000	> 500	1000 to 10000	A (an IC50 ratio greater than or equal to 10 fold)
Cc1cc(NC(=O)C(=O)N2C[C@H](C)CC[C@H]2[C@@H]2CCC[C@H](O)C2)cnc1N (single isomer, unassigned) [Compound 567]	> 1000	> 500	> 500	> 1000	> 500	> 10000	C (an IC50 ratio of less than 3 fold)
Cc1cc(NC(=O)C(=O)N2C[C@@H](C)CC[C@@H]2[C@@H]2CCC[C@@H](O)C2)cnc1N (single isomer, unassigned) [Compound 568]	> 1000	> 500	> 500	> 1000	> 500	> 10000	C (an IC50 ratio of less than 3 fold)
Cc1cc([C@@H]2CC[C@@H](C)CN2C(=O)C(=O)Nc2cnc(N)c(C)c2)ccc1O (single isomer, unassigned) [Compound 572]	< 100	50 to 500	50 to 500	< 100	< 50	< 1000	A (an IC50 ratio greater than or equal to 10 fold)
Cc1cc(NC(=O)C(=O)N2C[C@@H](C)CC[C@@H]2c2cnc3[nH]ncc3c2)cnc1N (single isomer, unassigned) [Compound 573]	> 1000	> 500	> 500	> 1000	> 500	> 10000	C (an IC50 ratio of less than 3 fold)
Cc1cc(NC(=O)C(=O)N2C[C@@H](C)CC[C@@H]2c2ccc(C(F)(F)F)cc2)cnc1N (single isomer, unassigned) [Compound 575]	> 1000	> 500	> 500	> 1000	> 500	> 10000	C (an IC50 ratio of less than 3 fold)
CCc1cc(NC(=O)C(=O)N2C[C@H](C)CC[C@H]2c2ccc3[nH]ncc3c2)cnc1N (single isomer, unassigned) [Compound 579]	> 1000	> 500	> 500	> 1000	> 500	> 10000	B (an IC50 ratio greater than or equal to 3 fold but lower than 10 fold)

Further lines, with some results ahead:

IC50 [1] [nM]	IC50 (PRMT5 [2]) [nM]	IC50 (PRMT5 [4]) [nM]	IC50 [5] [nM]	IC50 (PRMT5 [6]) [nM]	SMILES	IC50 [3] [nM]	MTAP intact/deleted ratio [5]
> 1000	> 500	> 500	> 1000	> 500	C[C@@H]1CC[C@@H](c2cnc3[nH]ncc3c2)N(C(=O)C(=O)Nc2cncc(C(N)=O)c2)C1 (single isomer, unassigned) [Compound 550]	> 10000	C (an IC50 ratio of less than 3 fold)
> 1000	50 to 500	> 500	100 to 1000	50 to 500	CC[C@@H]1CC[C@H](c2ccccc2)N(C(=O)C(=O)Nc2cncc(C(N)=O)c2)C1 (single isomer, unassigned) [Compound 565]	> 10000	A (an IC50 ratio greater than or equal to 10 fold)
> 1000	> 500	> 500	> 1000	> 500	C[C@H]1CC[C@H](c2ccc(Cl)cc2)N(C(=O)C(=O)Nc2cncc(C(N)=O)c2)C1 (single isomer, unassigned) [Compound 569]	> 10000	C (an IC50 ratio of less than 3 fold)
> 1000	< 50	50 to 500	< 100	50 to 500	C[C@@H]1CC[C@@H](c2ccc(Cl)cc2)N(C(=O)C(=O)Nc2cncc(C(N)=O)c2)C1 (single isomer, unassigned) [Compound 570]	1000 to 10000	A (an IC50 ratio greater than or equal to 10 fold)
> 1000	> 500	> 500	> 1000	> 500	C[C@@H]1CC[C@@H](c2cc3cn[nH]c3cc2F)N(C(=O)C(=O)Nc2cncc(C(N)=O)c2)C1 (single isomer, unassigned) [Compound 571]	> 10000	C (an IC50 ratio of less than 3 fold)
> 1000	50 to 500	50 to 500	> 1000	50 to 500	C[C@H]1CC[C@H](c2cnc3[nH]ncc3c2)N(C(=O)C(=O)Nc2cncc(C(N)=O)c2)C1 (single isomer, unassigned) [Compound 574]	> 10000	B (an IC50 ratio greater than or equal to 3 fold but lower than 10 fold)
> 1000	> 500	> 500	> 1000	> 500	CC[C@@H]1CC[C@@H](c2ccccc2)N(C(=O)C(=O)Nc2cncc(C(N)=O)c2)C1 (single isomer, unassigned) [Compound 576]	> 10000	C (an IC50 ratio of less than 3 fold)
> 1000	> 500	> 500	> 1000	> 500	C[C@@H]1CC[C@@H](c2ccccn2)N(C(=O)C(=O)Nc2cncc(C(N)=O)c2)C1 (single isomer, unassigned) [Compound 578]	> 10000	C (an IC50 ratio of less than 3 fold)

Reference: patent US11999727B2 (Tango Therapeutics, Inc., priority 2020, dated 2024)
